Several values for one entry are separate records, joined by “and”; a condition that tells them apart may be missing. Equal entries are not always repeated. Where two headings read alike, the source gives them in different places.
What was measured:
LRRK2 G2019S [1] = molecular target: T1, LRRK2 G2019S (Homo sapiens, UniProt Q5S007, G2019S); test: TR-FRET cellular assay for LRRK2 Ser935 phosphorylation, SH-SY5Y cells, BacMam LRRK2-GFP G2019S (incl. Tocriscreen Mini library screen and follow-up); assay type: cell-based; design: This high-throughput assay utilizes cells expressing full-length human LRRK2 with a C-terminal GFP tag (LRRK2-GFP); host or cells: SH-SY5Y cells transduced with BacMam; conditions: for %Inhibition Initial screen / dephosphorylation of Ser935 in library screen: 20 µM; for dephosphorylation of Ser935 in library screen: Tocriscreen library; for Cellular TR-FRET Assay Max % Inhibition / IC50: dose-response follow-up; for Cellular TR-FRET Assay Max % Inhibition: 90 min; for IC50: three independent experiments, read-out: Cellular TR-FRET Assay IC50 +/-SD
T1 sequence (Q5S007 whole entry G2019S): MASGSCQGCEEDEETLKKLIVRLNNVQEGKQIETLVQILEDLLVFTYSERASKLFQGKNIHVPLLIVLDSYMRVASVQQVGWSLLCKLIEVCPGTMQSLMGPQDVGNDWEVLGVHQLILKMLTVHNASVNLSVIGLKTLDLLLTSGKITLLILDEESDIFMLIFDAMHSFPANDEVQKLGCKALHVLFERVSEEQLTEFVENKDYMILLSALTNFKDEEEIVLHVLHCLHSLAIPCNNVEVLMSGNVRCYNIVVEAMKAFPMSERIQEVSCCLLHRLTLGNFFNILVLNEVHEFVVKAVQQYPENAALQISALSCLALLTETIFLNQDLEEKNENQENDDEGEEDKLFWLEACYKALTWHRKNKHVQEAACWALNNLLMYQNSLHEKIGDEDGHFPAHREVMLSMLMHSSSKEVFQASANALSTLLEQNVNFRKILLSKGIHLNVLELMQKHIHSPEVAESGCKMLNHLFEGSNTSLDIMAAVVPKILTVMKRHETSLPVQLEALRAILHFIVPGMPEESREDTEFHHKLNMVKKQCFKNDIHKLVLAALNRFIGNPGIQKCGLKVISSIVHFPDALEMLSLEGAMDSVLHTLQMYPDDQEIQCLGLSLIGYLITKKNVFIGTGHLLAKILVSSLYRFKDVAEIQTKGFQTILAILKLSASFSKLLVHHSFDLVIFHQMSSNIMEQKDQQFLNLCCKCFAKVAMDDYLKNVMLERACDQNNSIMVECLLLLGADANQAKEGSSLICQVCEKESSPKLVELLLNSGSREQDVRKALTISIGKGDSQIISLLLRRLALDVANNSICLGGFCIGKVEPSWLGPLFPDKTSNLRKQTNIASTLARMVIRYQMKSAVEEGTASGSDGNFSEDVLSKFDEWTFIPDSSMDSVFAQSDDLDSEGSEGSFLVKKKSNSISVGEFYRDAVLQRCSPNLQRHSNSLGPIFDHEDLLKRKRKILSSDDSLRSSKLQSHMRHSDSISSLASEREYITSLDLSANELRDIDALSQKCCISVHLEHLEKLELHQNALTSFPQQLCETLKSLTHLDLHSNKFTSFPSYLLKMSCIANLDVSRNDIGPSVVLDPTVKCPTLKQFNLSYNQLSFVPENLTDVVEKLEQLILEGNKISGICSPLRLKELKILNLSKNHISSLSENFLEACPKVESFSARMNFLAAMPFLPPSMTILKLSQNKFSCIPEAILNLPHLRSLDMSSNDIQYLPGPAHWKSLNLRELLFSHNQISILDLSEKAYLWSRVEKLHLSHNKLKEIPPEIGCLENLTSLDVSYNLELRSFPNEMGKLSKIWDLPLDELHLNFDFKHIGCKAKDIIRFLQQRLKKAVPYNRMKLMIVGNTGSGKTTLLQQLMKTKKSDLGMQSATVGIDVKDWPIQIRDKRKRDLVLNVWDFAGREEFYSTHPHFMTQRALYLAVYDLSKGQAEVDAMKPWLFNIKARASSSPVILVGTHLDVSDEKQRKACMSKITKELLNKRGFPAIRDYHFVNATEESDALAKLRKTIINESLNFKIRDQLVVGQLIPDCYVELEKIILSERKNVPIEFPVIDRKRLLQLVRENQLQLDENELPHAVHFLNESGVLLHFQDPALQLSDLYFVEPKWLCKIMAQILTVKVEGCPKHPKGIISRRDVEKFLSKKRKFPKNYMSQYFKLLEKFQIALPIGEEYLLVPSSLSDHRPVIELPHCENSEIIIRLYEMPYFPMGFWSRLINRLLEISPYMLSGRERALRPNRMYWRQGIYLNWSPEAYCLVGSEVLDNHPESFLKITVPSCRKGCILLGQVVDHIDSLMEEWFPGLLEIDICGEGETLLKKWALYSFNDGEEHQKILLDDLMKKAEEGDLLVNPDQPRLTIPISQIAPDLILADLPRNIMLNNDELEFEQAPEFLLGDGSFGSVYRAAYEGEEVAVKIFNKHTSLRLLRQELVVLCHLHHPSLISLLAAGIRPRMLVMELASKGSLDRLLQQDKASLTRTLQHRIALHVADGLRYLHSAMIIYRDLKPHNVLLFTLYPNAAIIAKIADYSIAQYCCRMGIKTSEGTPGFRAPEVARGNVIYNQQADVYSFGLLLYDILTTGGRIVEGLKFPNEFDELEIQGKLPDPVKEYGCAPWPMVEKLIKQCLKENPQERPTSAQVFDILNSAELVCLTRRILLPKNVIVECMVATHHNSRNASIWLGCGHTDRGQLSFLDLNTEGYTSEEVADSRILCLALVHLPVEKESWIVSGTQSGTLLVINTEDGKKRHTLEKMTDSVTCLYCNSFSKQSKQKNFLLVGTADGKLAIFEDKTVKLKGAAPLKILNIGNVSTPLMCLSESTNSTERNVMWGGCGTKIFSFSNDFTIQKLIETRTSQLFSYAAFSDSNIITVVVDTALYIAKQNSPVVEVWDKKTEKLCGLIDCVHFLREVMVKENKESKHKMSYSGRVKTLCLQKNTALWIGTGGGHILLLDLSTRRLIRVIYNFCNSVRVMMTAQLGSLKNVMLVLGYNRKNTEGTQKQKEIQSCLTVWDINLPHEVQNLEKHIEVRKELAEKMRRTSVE
Experimental: U-2 OS cells are maintained in growth medium (McCoy’s 5A supplemented with 10% dialyzed FBS (dFBS), 10 mM HEPES, 0.1 mM NEAA, 1 mM Sodium Pyruvate, and 100 U/mL Penicillin/100 µg/mL Streptomycin). HEK293T cells are maintained in DMEM with 10% dFBS, 10 mM HEPES, 0.1 mM NEAA and 100 U/mL Penicillin/100 µg/mL Streptomycin. SH-SY5Y cells are maintained in DMEM/F-12 medium supplemented with 10% dFBS and 100 U/mL Penicillin/100 µg/mL Streptomycin. […] GIBCO® human neural stem cells (hNSCs) were propagated as an adherent culture in StemPro® NSC SFM according to the manufacturer’s recommended protocol (Life Technologies). For BacMam transduction of U-2 OS and HEK293T, cells were harvested, mixed with various amounts of BacMam LRRK2-GFP reagent (v/v) and plated onto 6-well plates. […] Cells were assayed in 384-well format (∼20,000 cells/well) 48 hours post-transduction as above.
Transduced cells in the 384-well assay plate were incubated with indicated inhibitors (5X, 5 µL/well) for 60 to 90 minutes. During this time, 6 X lysis buffer (Life Technologies) was supplemented with 30 nM Tb-labeled anti-LRRK2 pSer935 antibody and both protease and phosphatase inhibitor cocktails (Sigma). The complete 6 X lysis buffer was added to each well (5 µL/well) and the plates were incubated at room temperature in the dark for 2 hours. […] A sigmoidal dose-response equation with varying slope was used to fit the data and generate IC50 values. Z′-factor values were calculated as: Z′-factor = 1 - [(3 × stdevno virus +3 × stdevmaxvirus)/(avgmaxvirus – avgno-virus)]. The IC50 values reported in Table 1 are the averaged numbers from three independent experiments.
40 nL of 10 mM Tocris library compounds in DMSO were dispensed into each well of the assay plate by the ECHO system. Equal volumes of DMSO were dispensed into the control wells. Cells were incubated with compounds for 90 to 120 min prior to cell lysis and detection as described above. The percent inhibition is calculated as: [(average emission ratios of DMSO control wells – average emission ratios of compound wells)/(average emission ratios of DMSO control wells – average emission ratios of LRRK2-IN-1 treated wells)] * 100. For the dose-response follow-up studies, fresh compound DMSO stock solutions were prepared from powder. […] Z′-factor value was calculated as: Z′-factor = 1 - [(3 × stdevLRRK2-IN-1+3 × stdevDMSO)/(avgDMSO – avgLRRK2-IN-1)]. The IC50 values reported in Table 2 are the averaged numbers from three independent experiments for both cellular and biochemical TR-FRET assays and one representative result of two independent experiments for the cytotoxicity assay.

GFP-LRRK2 G2019S = molecular target: T2, GFP-LRRK2 G2019S (Homo sapiens, UniProt Q5S007, G2019S); test: Immunoprecipitation/Western analysis of LRRK2 phosphorylation at Ser910, Ser935, Ser955, Ser973 in HEK293 T-REx GFP-LRRK2 G2019S cells; assay type: cell-based; conditions: for effect on phosphorylation of Ser910, Ser935, Ser955 and Ser973 (IP-Western): 20 µM, 90 min, HEK293 GFP-LRRK2 G2019S, Figure 6
T2 construct: expressed in transfected cells
T2 sequence (Q5S007 whole entry G2019S): as above
Experimental: (§1) Immunoblot analysis: BacMam LRRK2-GFP transduced U-2 OS or SH-SY5Y cells (10^7 cells) were left untreated or treated with 3 µM LRRK2-IN-I for 90 min. For lysate preparation, the cells were washed once with ice-cold PBS and lysed by addition of ice-cold lysis buffer (20 mM Tris-HCl, pH 7.4, 1% NP-40, 5 mM EDTA, 5 mM NaF, 150 mM NaCl, and 1∶100 of protease and phosphatase inhibitor cocktails). The lysate was cleared of debris by centrifugation. Equal amount of total protein was loaded onto each lane for SDS-PAGE (3–8% Tris Acetate). The proteins were transferred onto nitrocellulose membrane using the iBLOT® dry blotting system (Life Technologies) according to manufacturer’s protocol. The membranes were blocked and incubated with a primary antibody against LRRK2 (Cell Signaling Technologies), followed by incubation with alkaline phosphatase-conjugated secondary antibody (WesternBreeze® chromogenic Kit, Life Technologies). The blot was developed by using the chromogenic BCIP/NBT substrate (WesternBreeze® chromogenic Kit, Life Technologies). […] Two days post induction, cells were treated for 90 minutes in the presence of 20 µM of compound or DMSO vehicle control. Cells were rapidly lysed in ice cold lysis buffer 50 mM Tris/HCl, pH 7.5, 1 mM EGTA, 1 mM EDTA, […] 1 mM sodium orthovanadate, 10 mM sodium beta-glycerolphosphate, 50 mM NaF, 5 mM sodium pyrophosphate, 0.27 M sucrose, 1 mM benzamidine and 2 mM phenylmethanesulphonylfluoride (PMSF) and one tablet each complete protease inhibitor and PhosSTOP phosphatase inhibitor (Roche) and was supplemented with 1% (v/v) Triton X-100. GFP-LRRK2 was immunoprecipitated with GFP nanotrap beads (ChromoTek). Immunecomplexes were washed twice with lysis buffer supplemented with 300 mM NaCl and once with Buffer A (50 mM Tris/HCl, pH 7.5, 50 mM NaCl, 0.1 mM EGTA and 0.1% (v/v) 2-mercaptoethanol, and 0.27 M sucrose).

LRRK2 A2016T/G2019S = molecular target: T3, LRRK2 A2016T/G2019S (Homo sapiens, UniProt Q5S007, A2016T/G2019S); test: Immunoprecipitation/Western analysis of LRRK2 phosphorylation in T-REx HEK293 cells expressing inhibitor desensitizing mutant; assay type: cell-based; conditions: for effect of desensitizing mutation A2016T/G2019S on compound-induced dephosphorylation (IP-Western): 20 µM, Figure 6 IRM
T3 construct: expressed in transfected cells
T3 sequence (Q5S007 whole entry A2016T/G2019S): as the sequence (Q5S007 whole entry G2019S) above, with A2016T counted along it
Experimental: as §1

LRRK2 G2019S [2] = molecular target: T1, LRRK2 G2019S; test: In vitro biochemical LRRK2 TR-FRET activity assay; conditions: for IC50: LRRK2 G2019S, ATP 134 µM (Km,app), LRRKtide substrate, three independent experiments, read-out: Biochemical LRRK2 assay IC50 +/- SD; for effect on LRRK2 activity in vitro: result in words
Experimental: The Biochemical LRRK2 TR-FRET activity assay was performed according to the manufacture recommended assay protocol (Life Technologies). […] After incubation at room temperature for 1 hour, the kinase reactions were stopped by addition of 10 µL of 20 mM EDTA and 4 nM Tb-anti-pERM (pLRRKtide) antibody in TR-FRET dilution buffer (Life Technologies). After a 30 minute incubation at room temperature, TR-FRET measurements were obtained on a BMG PHERAstar plate reader using LanthaScreen® filters and settings. A 16 point, 2-fold dilution series of each compound was tested in triplicate at each concentration and assays were also performed in triplicate.

[3] = system: SH-SY5Y cells expressing LRRK2-GFP G2019S
[4] = system: SH-SY5Y cells expressing LRRK2-GFP G2019S; test: Cytotoxicity assay (resazurin-based cell viability); conditions: read-out: Cytotoxicity Assay IC50; same conditions as TR-FRET follow-up; one representative of two experiments
[5] = Tocriscreen Mini library screen, SH-SY5Y G2019S, relative to LRRK2-IN-1 control

Compound	%Inhibition Initial screen (LRRK2 G2019S [1]; [5])	effect on phosphorylation of Ser910, Ser935, Ser955 and Ser973 (IP-Western) (GFP-LRRK2 G2019S)	IC50 (LRRK2 G2019S [2])	IC50 [3]	Cellular TR-FRET Assay Max % Inhibition (LRRK2 G2019S [1]; SH-SY5Y G2019S)	IC50 (LRRK2 G2019S [1]; SH-SY5Y G2019S)	also measured
O=C(CCCN1CCC2(CC1)C(=O)N(Cc1cccc(F)c1)CN2c1ccccc1)c1ccc(F)cc1.O=C(O)/C=C\C(=O)O [3′-fluorobenzylspiperone maleate]	53%						
O=C(NCCCNc1nc(Nc2cccc(NC(=O)N3CCCC3)c2)ncc1I)c1cccs1 [BX-795]		inhibited LRRK2 cellular phosphorylation					effect of desensitizing mutation A2016T/G2019S on compound-induced dephosphorylation (IP-Western) (LRRK2 A2016T/G2019S): rescued phosphorylation
Cn1cc(C2=C(c3cn(CCCSC(=N)N)c4ccccc34)C(=O)NC2=O)c2ccccc21 [Ro31-8220]							dephosphorylation of Ser935 in library screen (LRRK2 G2019S [1]; SH-SY5Y G2019S): did not observe in vivo dephosphorylation of Ser935
CCc1ccc(OCc2ccccc2C(=O)Nc2ccc3nc(C)cc(N)c3c2)cc1 [JTC 801]	90.1%	moderately reduced phosphorylation of all four residues	> 100 µM	10 µM	84%	9.6 µM	effect on LRRK2 activity in vitro (LRRK2 G2019S [2]): did not repress LRRK2 activity in vitro; %Inhibition Initial screen (LRRK2 G2019S [1]; Tocriscreen Mini library screen, SH-SY5Y G2019S, relative to LRRK2-IN-1 control, listed as JTC801, 20 µM): 90%
[O-][S+](c1ccccc1)c1ccc2nnnn2n1 (stereo not shown) [Ro 106-9920]	69.8%		> 100 µM	20 µM	76%	7.6 µM	effect on LRRK2 activity in vitro (LRRK2 G2019S [2]): did not repress LRRK2 activity in vitro; suppression of LRRK2 phosphorylation on Ser935 (GFP-LRRK2 G2019S; HEK293 cells): approximately 50%
O=C(c1ccc(Nc2nccc(-c3cc4ccccc4s3)n2)cc1)N1CCC(N2CCCC2)CC1 [IKK 16]	81.7%	inhibited phosphorylation of Ser910, Ser935, Ser955 and Ser973	0.05 µM	> 20 µM	82%	1.3 µM	effect of desensitizing mutation A2016T/G2019S on compound-induced dephosphorylation (IP-Western) (LRRK2 A2016T/G2019S): rescued phosphorylation
NC(=O)Nc1sc(-c2ccc(F)cc2)cc1C(N)=O [TPCA-1]	54.8%				50%	0.1 µM	IC50 [4]: > 20 µM
O=C(O)/C=C\C(=O)O.O=C1/C(=C/c2ccccc2)C[C@@]2(O)[C@H]3Cc4ccc(O)c5c4[C@@]2(CCN3CC2CC2)[C@H]1O5 [BNTX maleate]		moderately reduced phosphorylation of all four residues	> 100 µM		88%	4 µM	effect on LRRK2 activity in vitro (LRRK2 G2019S [2]): did not repress LRRK2 activity in vitro; IC50 [4]: > 20 µM; %Inhibition Initial screen (LRRK2 G2019S [1]): 70% and 69.7%
CC(C)(C)c1ccc(S(=O)(=O)/C=C/C#N)cc1 [Bay 11-7085]	97.5%	moderately reduced phosphorylation of all four residues	> 100 µM	> 20 µM	100%	5.3 µM	effect on LRRK2 activity in vitro (LRRK2 G2019S [2]): did not repress LRRK2 activity in vitro; LRRK2 phosphorylation remaining, % of untreated G2019S (GFP-LRRK2 G2019S; 293 cells, LRRK2 G2019S): 50%; effect of desensitizing mutation A2016T/G2019S on compound-induced dephosphorylation (IP-Western) (LRRK2 A2016T/G2019S): did not appear to be changed; LRRK2 phosphorylation remaining, % of untreated G2019S (LRRK2 A2016T/G2019S; 293 cells, LRRK2 G2019S/A2016T): 50%
O=C1C(Cl)=C(NCCN2CCOCC2)C(=O)c2ncccc21 [NSC 663284]	59.1%		0.48 µM	2 µM	45%	5.8 µM	
CC(C)[C@H](CO)Nc1nc(Nc2cc(N)cc(Cl)c2)c2ncn(C(C)C)c2n1 [Aminopurvalanol A]	56.2%			> 20 µM	50%	1.4 µM	
CN(C)CCCn1cc(C2=C(c3c[nH]c4ccccc34)C(=O)NC2=O)c2ccccc21 [GF109203X]							dephosphorylation of Ser935 in library screen (LRRK2 G2019S [1]; SH-SY5Y G2019S): did not observe in vivo dephosphorylation of Ser935
Nc1nc(Nc2ccccc2)nc2c1ncn2[C@@H]1O[C@H](CO)[C@@H](O)[C@H]1O [CV1808]	55%						
C[C@@H](N)[C@H]1CC[C@H](C(=O)Nc2ccncc2)CC1 [Y-27632]	67.3%			> 20 µM	69%		

— paper PMC3429506, “Screening for Novel LRRK2 Inhibitors Using a High-Throughput TR-FRET Cellular Assay for LRRK2 Ser935 Phosphorylation” (PLoS ONE, 2012)
